Test results published in patent US20090215650A1, “SUBSTRATES WITH STABLE SURFACE CHEMISTRY FOR BIOLOGICAL MEMBRANE ARRAYS AND METHOD FOR FABRICATING THEREOF” (priority 2002, published 2009).

Experiments:
[1] = biological target: streptavidin (Streptomyces avidinii, UniProt P22629); assay: Binding of cy3-streptavidin to biotin-x-DHPE lipid arrays in presence of BSA; conditions: BSA 0.01%-1%; DPPC/DMPC/2% biotin-x-DHPE arrays on GAPS slide
Method: Seven 5×5 arrays of DPPC/DMPC/2% biotin-x-DHPE were printed onto a single Corning GAPS slide (data not shown). After incubation 3 sets of lipid arrays were pre-incubated with TR-BSA before the addition of Cy3-streptavidin. A second set of 3 arrays was incubated with TR-BSA together with cy3-streptavidin, while one array was covered with a solution of cy3-streptavidin. After 30 minutes the slides were rinsed, dried and imaged. The cy5 channel signal was used to monitor the adsorption of TR-BSA, and the cy3 channel signal was used to monitor the binding of cy3-streptavidin.

[2] = biological target: Neurotensin receptor subtype I (human, NTR1) (Homo sapiens, UniProt P30989); assay: BT-NT binding to NTR1 arrays on coated glass slides, competition with unlabeled neurotensin; conditions: 2 nM BT-NT; for binding specificity of BT-NT: competition with 4 μM unlabeled neurotensin
Sequence of Neurotensin receptor subtype I (human, NTR1) (P30989 whole entry): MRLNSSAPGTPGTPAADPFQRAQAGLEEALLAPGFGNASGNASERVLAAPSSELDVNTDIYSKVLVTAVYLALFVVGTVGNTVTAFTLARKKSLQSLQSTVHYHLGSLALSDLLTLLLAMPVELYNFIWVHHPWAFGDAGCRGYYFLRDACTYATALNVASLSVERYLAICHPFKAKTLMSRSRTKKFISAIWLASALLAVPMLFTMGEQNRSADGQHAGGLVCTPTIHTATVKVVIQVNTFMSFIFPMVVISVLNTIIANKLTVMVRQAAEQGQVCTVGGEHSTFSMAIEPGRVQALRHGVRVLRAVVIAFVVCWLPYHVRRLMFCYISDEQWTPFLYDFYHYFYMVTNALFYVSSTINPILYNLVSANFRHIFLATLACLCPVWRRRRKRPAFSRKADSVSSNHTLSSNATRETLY
Method: Neurotensin receptor subtype I (human, NTR1) was purchased from Perkin Elmer Life Sciences (Boston, Mass.) and was received as a membrane associated suspension in a buffer. Printing was carried out using a quill-pin printer (Cartesian Technologies Model PS 5000) equipped with software for programmable aspiration and dispensing. After printing the arrays were incubated in a humid chamber at room temperature for one hour, and then used for ligand binding experiments. Two different binding solutions, 2 nM BT-NT in binding buffer in either the absence or presence of neurotensin, were used to examine the total binding of fluorescently labeled neurotensin (2 nM BT-NT), and the specific inhibition of the binding of BT-NT in the presence of 4 μM unlabeled neurotensin. The binding buffer contained 50 mM Tris-HCl, pH 7.4, 10 mM MgCl2, 1 mM EDTA, 0.1% BSA. The incubation time for binding was one hour. After incubation, the slides were rinsed, dried, and examined using a Genipix scanner.
Glass slides were coated by incubating the slide with a 3 ml solution containing 1 mg/ml polymer (poly-lysine, 46 kDa, or polyethyleneimine, 50 kDa) in 0.1×PBS buffer for 30 minutes at room temperature, followed by rinsing with water and drying under nitrogen. […] Using a Telechem quill pin CMP5, we fabricated GPCR arrays.
Neurotensin receptor subtype 1 (human, NTR1) was purchased from Perkin Elmer Life Sciences (Boston, Mass.) and was received as a membrane associated suspension in a buffer. Printing was carried out using a quill-pin printer (Cartesian Technologies Model PS 5000) equipped with software for programmable aspiration and dispensing. After printing the arrays were incubated in a humid chamber at room temperature for one hour, and then used for ligand binding experiments. […] After incubation, the slides were rinsed, dried, and imaged in a fluorescence scanner. […]

[3] = two reactive surfaces (epoxy silane, thiol-silane)

binding specificity of BT-NT ([2]; poly-lysine and polyethyleneimine surfaces (both)) | binding specificity of BT-NT [2, 3] | total binding signal [2, 3] | Substance | effect on background level [1] | effect on binding specificity of cy3-streptavidin [1]
 |  |  | bovine serum albumin [BSA] | reduces the background level in most cases | does not significantly decrease the binding specificity
~90% | 75-90% | relatively low | Bodipy-TMR-neurotensin [BT-NT] |  | 
